The record followed here is ChEMBL document CHEMBL2203236, “New monoterpene glycosides from Paeonia suffruticosa Andrews and their inhibition on NO production in LPS-induced RAW 264.7 cells” (Bioorg Med Chem Lett, 2012).

A value given as a limit tells only on which side of the number the result lay.

For series [1], the system named is RAW264.7. In words: Cytotoxicity against mouse RAW264.7 cells after 24 hrs. It is filed as cell-based. As to conditions: raw264.7, 24 h.
Series [2] concerns RAW264.7. Description: Inhibition of LPS-induced NO production in mouse RAW264.7 cells after 24 hrs by Griess reaction. The settings on record: RAW264.7, 24 h. It is filed as functional, cell-based. For orientation: Nitrite, measured by Griess reagent, commonly stands in for NO production.

One may read the IC50 as the concentration needed to halve the response being measured. Higher therefore signals a need for much substance. For `C[C@@]12CC(=O)[C@H]3C[C@]1(O)O[C@H](O2)[C@@H]3COC(=O)c1ccccc1` [PAEONIFLORIGENONE], the Activity result in series [1] was “Non-toxic”. Besides, half-maximal inhibition in series [2] (IC50) was put at 6.87 µM.
For `C[C@@]12C[C@@]3(O)O[C@@H](O1)[C@]1(COC(=O)c4ccc(O)cc4)[C@@H]3C[C@]12O[C@@H]1O[C@H](CO)[C@@H](O)[C@H](O)[C@H]1O` [OXYPAEONIFLORIN], the half-maximal inhibitory concentration (IC50) in series [2] is more than 100 µM.
As for `C[C@@]12C[C@@]3(O)O[C@@H](O1)[C@]1(COC(=O)c4ccccc4)[C@@H]3C[C@]12O[C@@H]1O[C@H](COC(=O)c2cc(O)c(O)c(O)c2)[C@@H](O)[C@H](O)[C@H]1O` [GALLOYLPAEONIFLORIN], the Activity result in series [1] was “Non-toxic”. The IC50 in series [2] was determined as 36.1 µM.
For `C[C@@]12C[C@@]3(O)O[C@@H](O1)[C@]1(COC(=O)c4ccccc4)[C@@H]3C[C@]12O[C@@H]1O[C@H](COC(=O)c2ccccc2)[C@@H](O)[C@H](O)[C@H]1O` [BENZOYLPAEONIFLORIN] the same measures were “Non-toxic” and more than 100 µM.
For `C[C@@]12C[C@@]3(OS(=O)O)O[C@@H](O1)[C@]1(COC(=O)c4ccc(O)cc4)[C@H]3C[C@@]12O[C@@H]1O[C@H](CO)[C@@H](O)[C@H](O)[C@H]1O` [OXYPAEONIFLORIN SULFONATE] the same measures were “Non-toxic” and more than 100 µM.
For `CO[C@H]1O[C@@]2(C)CC(=O)[C@@H]3C[C@@]2(O[C@@H]2O[C@H](CO)[C@@H](O)[C@H](O)[C@H]2O)[C@]13COC(=O)c1ccc(O)cc1` [OXYPAEONIDANIN] the same measures were “Non-toxic” and 90.9 µM.
Turning to `C[C@@]12C[C@@]3(O)O[C@@H](O1)[C@]1(COC(=O)c4ccc(O)cc4)[C@H]3C[C@@]12O[C@@H]1O[C@H](COC(=O)c2ccc(O)cc2)[C@@H](O)[C@H](O)[C@H]1O` [MUDANPIOSIDE H], the Activity result in series [1] is reported as “Non-toxic”. The same compound showed an IC50 in series [2] of more than 100 µM.
For `CCCCO[C@H]1O[C@@]2(C)CC(=O)[C@@H]3C[C@@]2(O[C@@H]2O[C@H](CO)[C@@H](O)[C@H](O)[C@H]2O)[C@]13COC(=O)c1ccc(O)cc1` the same measures were “Non-toxic” and more than 100 µM.
For `CO[C@]12C[C@]3(C)O[C@H](O1)[C@]1(COC(=O)c4ccccc4)[C@@H]2C[C@]13O[C@@H]1O[C@H](COC(=O)c2ccccc2)[C@@H](O)[C@H](O)[C@H]1O` the same measures were “Non-toxic” and 41.9 µM.
On to `CO[C@@H]1O[C@@]2(C)CC(=O)[C@@H]3C[C@@]2(O[C@@H]2O[C@H](CO)[C@@H](O)[C@H](O)[C@H]2O)[C@]13COC(=O)c1ccc(O)cc1`, for which the Activity result in series [1] is “Non-toxic”.
In the case of `CCCCO[C@]12C[C@]3(C)O[C@H](O1)[C@]1(COC(=O)c4ccc(O)cc4)[C@H]2C[C@@]13O[C@@H]1O[C@H](CO)[C@@H](O)[C@H](O)[C@H]1O`, in series [1], the Activity entry was “Non-toxic”. For the same compound, in series [2], the IC50 was more than 100 µM.
Consider `CCCCO[C@]12C[C@]3(C)OC(O1)[C@]1(COC(=O)c4ccccc4)[C@@H]2C[C@@]31O[C@@H]1O[C@H](CO)[C@@H](O)[C@H](O)[C@H]1O`, for which the Activity result in series [1] is on record as “Non-toxic”. The compound further returned an IC50 in series [2] of more than 100 µM.
For `COc1cc(C(=O)OC[C@H]2O[C@@H](O[C@]34C[C@@H]5[C@@]3(COC(=O)c3ccccc3)[C@H]3O[C@]5(O)C[C@]4(C)O3)[C@H](O)[C@@H](O)[C@@H]2O)ccc1O` [MUDANPIOSIDE J], in that order: “Non-toxic” and more than 100 µM.
For `COc1ccc(C(=O)OC[C@]23[C@H]4O[C@]5(O)C[C@](C)(O4)[C@@]2(O[C@@H]2O[C@H](CO)[C@@H](O)[C@H](O)[C@H]2O)C[C@H]35)cc1` [MUDANPIOSIDE D], in that order: “Non-toxic” and more than 100 µM.
For `COc1ccc(C(=O)OC[C@H]2O[C@@H](O[C@]34C[C@@H]5[C@@]3(COC(=O)c3ccc(O)cc3)[C@H]3O[C@]5(O)C[C@]4(C)O3)[C@H](O)[C@@H](O)[C@@H]2O)cc1` [MOUDANPIOSIDE B], in that order: “Non-toxic” and more than 100 µM.
For `CO[C@H]1O[C@@]2(C)CC(=O)[C@H]3C[C@]2(O[C@@H]2O[C@H](COC(=O)c4ccccc4)[C@@H](O)[C@H](O)[C@H]2O)[C@]13COC(=O)c1ccccc1` [PAEONIDANIN A], the Activity result in series [1] is “Non-toxic”. For the same compound, in series [2], the IC50 is more than 100 µM.
For `CO[C@]12C[C@]3(C)O[C@H](O1)[C@]1(COC(=O)c4ccc(O)cc4)[C@H]2C[C@@]13O[C@@H]1O[C@H](CO)[C@@H](O)[C@H](O)[C@H]1O`, in that order: “Non-toxic” and more than 100 µM.
For `C[C@@]12C[C@@]3(O)O[C@@H](O1)[C@]1(COC(=O)c4ccccc4)[C@H]3C[C@@]12O[C@@H]1O[C@H](COC(=O)c2ccccc2)[C@@H](O[C@@H]2O[C@H](CO)[C@@H](O)[C@H](O)[C@H]2O)[C@H](O)[C@H]1O` [PAEONIFLORIN B], in that order: “Non-toxic” and 31.2 µM.
On to `CO[C@]12C[C@]3(C)O[C@H](O1)[C@]1(COC(=O)c4ccc(O)cc4)[C@H]2C[C@@]13O[C@@H]1O[C@H](COC(=O)c2cc(O)c(O)c(O)c2)[C@@H](O)[C@H](O)[C@H]1O`, for which, in series [1], the Activity result was “Non-toxic”. Further, in series [2], the IC50 is more than 100 µM.
For `COc1cc(C(=O)OC[C@H]2O[C@@H](O[C@@]34C[C@H]5[C@@]3(CO)[C@H]3O[C@]5(O)C[C@]4(C)O3)[C@H](O)[C@@H](O)[C@@H]2O)ccc1O` [MUDANPIOSIDE E], in that order: “Non-toxic” and more than 100 µM.
For `CCCCO[C@H]1O[C@@]2(C)CC(=O)[C@@H]3C[C@@]2(O[C@@H]2O[C@H](CO)[C@@H](O)[C@H](O)[C@H]2O)[C@]13COC(=O)c1ccccc1`, the Activity result in series [1] was “Non-toxic”. The IC50 in series [2] was more than 100 µM.
Turning to `C[C@@]12C[C@@]3(O)O[C@@H](O1)[C@]1(COC(=O)c4ccc(O)cc4)[C@H]3C[C@@]12O[C@@H]1O[C@H](CO)[C@@H](O)[C@H](O)[C@H]1O` [OXYPAEONIFLORIN], the Activity result in series [1] is on record as “Non-toxic”.
For `C[C@@]12C[C@@]3(O)O[C@@H](O1)[C@]1(CO)[C@H]3C[C@@]12O[C@@H]1O[C@H](CO)[C@@H](O)[C@H](O)[C@H]1O`, the Activity entry in series [1] is on record as “Non-toxic”. This compound also showed an IC50 in series [2] of 74.2 µM.
For `C[C@@]12C[C@@]3(O)O[C@@H](O1)[C@]1(COC(=O)c4ccc(O)cc4)[C@H]3C[C@@]12O[C@@H]1O[C@H](COC(=O)c2cc(O)c(O)c(O)c2)[C@@H](O)[C@H](O)[C@H]1O` [GALLOYLOXYPAEONIFLORIN], in that order: “Non-toxic” and more than 100 µM.
For `C[C@@]12C[C@@]3(O)O[C@@H](O1)[C@]1(COC(=O)c4ccccc4)[C@H]3C[C@@]12O[C@@H]1O[C@H](CO)[C@@H](O)[C@H](O)[C@H]1O` [PAEONIFLORIN] the same measures were “Non-toxic” and more than 100 µM.
As to `CO[C@]12C[C@]3(C)O[C@H](O1)[C@]1(COC(=O)c4ccccc4)[C@@H]2C[C@]13O[C@@H]1O[C@H](CO)[C@@H](O)[C@H](O)[C@H]1O`, in series [1], the Activity entry is recorded as “Non-toxic”. In addition, the IC50 in series [2] is more than 100 µM.
For `CC1=CC(=O)[C@@H]2C[C@@]1(O[C@@H]1O[C@H](CO)[C@@H](O)[C@H](O)[C@H]1O)[C@@]2(C)CO` [MOUDANPIOSIDE F], in that order: “Non-toxic” and 12.4 µM.
